In article PMC8352872, “Biochemical and structural studies of target lectin SapL1 from the emerging opportunistic microfungus Scedosporium apiospermum” (Scientific Reports, 2021):

Assays:
SapL1 [1] = molecular target: T1, SapL1 (Scedosporium apiospermum, UniProt A0A084FYP2); assay: ITC (stoichiometry fixed to […]); format: binding
T1 construct: gene SAPIO_CDS9261; carbohydrate recognition domain, residues 75-369

SapL1 [2] = molecular target: T1, SapL1; assay: (X-ray) and ITC (stoichiometry fixed to […]); format: binding
[3] = molecular target: the molecule itself; assay: dynamic light scattering; protein at 1 mg/mL in 50 mM Tris-HCl, 100 mM NaCl, pH 8.5, measured in triplicate after centrifugation; data not shown

Molecule: C[C@@H]1OC(O)[C@@H](O)[C@H](O)[C@@H]1O (stereo partly drawn) [L-fucose]
- Kd (SapL1 [1]): 225 ± 1.52 µM

Molecule: CO[C@@H]1O[C@@H](C)[C@@H](O)[C@@H](O)[C@@H]1O [α-methyl-L-fucoside, methyl-α-L-fucopyranoside]
- Kd (SapL1 [2]): 190 ± 1.44 µM

B1: Scedosporium apiospermum Lectin 1 (SapL1), carbohydrate recognition domain, residues 75-369 (domain or fragment)
chain: MSGVLQISFPAGIAAIRNNSSLRVYEAALDGGVREAQYEGRWAGGKPDNVIATGKIGTPIAATSVGFQYIRVYYVGADNKAREACWDGKGWYTGAFVKDVAPYSSIGAVFLGKNIVVRVYTQNHDNTIQEWVWDSPSTGWTAGANFGAALPGTAIAATSWGAGPYHIRVYFQDTNRNVIESGWDGSGWYTGGLKISNQSPRASLGATSWGESGSSLGIRLYYATQDNLIKEKAWDGGGGWYDGGFQQRSIPGSRVAAIPLPVLRVYLQNGTEVSGITEYAWNSGWVVGQAVLPPA
notes: the first 74 residues of the annotated protein, which the authors suspect to be a misannotation, are left out; In the crystal all 295 amino acids are visible except the N-terminal methionine; also called hypothetical protein XP_016640003.1; source: E. coli BL21trxB (DE3), pProNde vector, purified (IMAC, TEV cleavage, second His-trap pass); not shown: His6, N-terminal, cleaved
- stoichiometry N [3]: 2
